In the NIST ThermoML archive (doi:10.1021/je060271a):
Numbers after ± are expanded uncertainties.

Conditions: 283.14 K, Liquid, Vibrating tube method

CCCCCCC(=O)OCC(COC(=O)CCCCCC)(COC(=O)CCCCCC)COC(=O)CCCCCC [pentaerythritol tetraheptanoate]
Conditions	mass density [kg/m3]
23079 kPa	998.5 ± 1.2
23110 kPa	998.5 ± 1.2
23147 kPa	998.6 ± 1.2
23178 kPa	998.6 ± 1.2
23209 kPa	998.6 ± 1.2
23246 kPa	998.5 ± 1.2
23277 kPa	998.7 ± 1.2
23308 kPa	998.6 ± 1.2
23339 kPa	998.7 ± 1.2
23377 kPa	998.7 ± 1.2
23410 kPa	998.6 ± 1.2
23442 kPa	998.7 ± 1.2
23480 kPa	998.8 ± 1.2
23512 kPa	998.7 ± 1.2
23543 kPa	998.7 ± 1.2
23576 kPa	998.8 ± 1.2
23614 kPa	998.8 ± 1.2
23646 kPa	998.8 ± 1.2
23685 kPa	998.8 ± 1.2
23717 kPa	998.8 ± 1.2
23749 kPa	998.9 ± 1.2
23788 kPa	998.8 ± 1.2
23821 kPa	998.9 ± 1.2
23854 kPa	999 ± 1.2
23888 kPa	998.9 ± 1.2
23927 kPa	998.9 ± 1.2
23960 kPa	998.9 ± 1.2
23999 kPa	998.9 ± 1.2
24032 kPa	998.9 ± 1.2
24066 kPa	999.1 ± 1.2
24099 kPa	998.9 ± 1.2
24140 kPa	999.1 ± 1.2
24173 kPa	999.1 ± 1.2
24213 kPa	999 ± 1.2
24247 kPa	999 ± 1.2
24281 kPa	999.1 ± 1.2
24324 kPa	999.2 ± 1.2
24358 kPa	999.1 ± 1.2
24392 kPa	999.2 ± 1.2
24426 kPa	999.3 ± 1.2
24468 kPa	999.3 ± 1.2
24502 kPa	999.3 ± 1.2
24543 kPa	999.3 ± 1.2
24578 kPa	999.3 ± 1.2
24613 kPa	999.2 ± 1.2
24655 kPa	999.4 ± 1.2
24726 kPa	999.4 ± 1.2
24769 kPa	999.4 ± 1.2
24841 kPa	999.4 ± 1.2
24878 kPa	999.5 ± 1.2
24921 kPa	999.5 ± 1.2
24958 kPa	999.4 ± 1.2
24994 kPa	999.5 ± 1.2
25038 kPa	999.6 ± 1.2
25075 kPa	999.6 ± 1.2
25112 kPa	999.6 ± 1.2
25155 kPa	999.5 ± 1.2
25192 kPa	999.6 ± 1.2
25230 kPa	999.6 ± 1.2
25277 kPa	999.6 ± 1.2
25314 kPa	999.6 ± 1.2
25352 kPa	999.6 ± 1.2
25389 kPa	999.7 ± 1.2
25427 kPa	999.8 ± 1.2
25472 kPa	999.8 ± 1.2
25511 kPa	999.8 ± 1.2
25549 kPa	999.8 ± 1.2
25595 kPa	999.7 ± 1.2
25633 kPa	999.9 ± 1.2
25672 kPa	999.8 ± 1.2
25718 kPa	1000 ± 1.2
25758 kPa	1000 ± 1.2
25799 kPa	999.9 ± 1.2
25839 kPa	999.8 ± 1.2
25886 kPa	999.9 ± 1.2
25918 kPa	1000.1 ± 1.2
26265 kPa	1000.1 ± 1.2
26414 kPa	1000.4 ± 1.2
26496 kPa	1000.3 ± 1.2
26525 kPa	1000.3 ± 1.2
26556 kPa	1000.2 ± 1.2
26581 kPa	1000.3 ± 1.2
26612 kPa	1000.3 ± 1.2
26638 kPa	1000.3 ± 1.2
26665 kPa	1000.4 ± 1.2
26696 kPa	1000.4 ± 1.2
26722 kPa	1000.4 ± 1.2
26776 kPa	1000.3 ± 1.2
26950 kPa	1000.5 ± 1.2
27004 kPa	1000.4 ± 1.2
27030 kPa	1000.6 ± 1.2
27063 kPa	1000.7 ± 1.2
27090 kPa	1000.6 ± 1.2
27291 kPa	1000.7 ± 1.2
27380 kPa	1000.7 ± 1.2
27414 kPa	1000.6 ± 1.2
27442 kPa	1000.8 ± 1.2
27476 kPa	1000.8 ± 1.2
27506 kPa	1000.7 ± 1.2
27536 kPa	1000.8 ± 1.2
27566 kPa	1000.9 ± 1.2
27704 kPa	1000.9 ± 1.2
27724 kPa	1000.9 ± 1.2
27744 kPa	1000.9 ± 1.2
27768 kPa	1000.9 ± 1.2
27787 kPa	1001 ± 1.2
27808 kPa	1000.9 ± 1.2
27832 kPa	1000.9 ± 1.2
27851 kPa	1001 ± 1.2
27872 kPa	1001 ± 1.2
27980 kPa	1001 ± 1.6
28001 kPa	1001 ± 1.2
